Source: patent publication US9302999B2, “Substituted triazoles as herbicides” (E. I. DU PONT DE NEMOURS AND COMPANY, priority 2012, dated 2016)

Columns and labels:
Assay type in all cases: in vivo
[1] = test system: pigweed (Amaranthus retroflexus); assay: Test A pre-/postemergence: pigweed; settings: for Pigweed plant response rating: Postemergence; for Plant response rating, Pigweed: Preemergence
Procedure, shortened: (§1)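 Rating scale 0–100 (100 = complete control), visual, ~10 days after application in the greenhouse. Applications: preemergence directed soil spray; postemergence at 1–2 leaves.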

[2] = test system: crabgrass, large (large crabgrass, Digitaria sanguinalis); assay: Test A pre-/postemergence: crabgrass, large; settings: for Crabgrass, Large plant response rating: Postemergence; for Plant response rating, Crabgrass, Large: Preemergence
Procedure, shortened: as §1

[3] = test system: barnyardgrass (Echinochloa crus-galli); assay: Test C flooded paddy test: barnyardgrass; settings: scale 0 to 100 (0 no effect, 100 complete control)
Procedure, shortened: (§2)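 Rating: visual, 0–100 (100 = complete control), versus untreated controls after 13 to 15 greenhouse days. Treatment went into paddy water held at 3 cm over the soil, on plants grown to two leaves.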

[4] = test system: barnyardgrass (Echinochloa crus-galli); assay: Test A pre-/postemergence: barnyardgrass; settings: for Barnyardgrass plant response rating: Postemergence; for Plant response rating, Barnyardgrass: Preemergence
Procedure, shortened: as §1

[5] = test system: morningglory (Ipomoea spp.); assay: Test A pre-/postemergence: morningglory; settings: for Morningglory plant response rating: Postemergence; for Plant response rating, Morningglory: Preemergence
Procedure, shortened: as §1

[6] = test system: wheat (Triticum aestivum); assay: Test A pre-/postemergence: wheat; settings: for Wheat plant response rating: Postemergence; for Plant response rating, Wheat: Preemergence
Procedure, shortened: as §1

corn (Zea mays) = assay: Test A pre-/postemergence: corn; settings: for Corn plant response rating: Postemergence; for Plant response rating, Corn: Preemergence
Procedure, shortened: as §1

rice (Oryza sativa) = assay: Test C flooded paddy test: rice; settings: scale 0 to 100 (0 no effect, 100 complete control)
Procedure, shortened: as §2

[7] = test system: velvetleaf (Abutilon theophrasti); assay: Test A pre-/postemergence: velvetleaf; settings: for Velvetleaf plant response rating: Postemergence; for Plant response rating, Velvetleaf: Preemergence
Procedure, shortened: as §1

[8] = test system: foxtail, giant (giant foxtail, Setaria faberii); assay: Test A pre-/postemergence: foxtail, giant; settings: for Foxtail, Giant plant response rating: Postemergence; for Plant response rating, Foxtail, Giant: Preemergence
Procedure, shortened: as §1

[9] = test system: sedge, umbrella (small-flower umbrella sedge, Cyperus difformis); assay: Test C flooded paddy test: sedge, umbrella; settings: scale 0 to 100 (0 no effect, 100 complete control)
Procedure, shortened: as §2

[10] = test system: ducksalad (Heteranthera limosa); assay: Test C flooded paddy test: ducksalad; settings: scale 0 to 100 (0 no effect, 100 complete control)
Procedure, shortened: as §2

[11] = 125 g ai/ha, 0 to 100 scale, 0 is no effect, 100 is complete control
[12] = 500 g ai/ha, visual rating on 0 to 100 scale (0 no effect, 100 complete control), approximately ten days
[13] = 125 g ai/ha, 0 to 100 scale (0 no effect, 100 complete control)
[14] = 500 g ai/ha, 0 to 100 scale, 0 is no effect, 100 is complete control
[15] = Flood (flooded paddy test), 62 g ai/ha, visual rating after 13 to 15 days
[16] = Flood (flooded paddy test), 125 g ai/ha, visual rating after 13 to 15 days
[17] = Flood (flooded paddy test), 250 g ai/ha, visual rating after 13 to 15 days

Cc1nn(-c2ccc(C(F)(F)F)cc2)nc1C(=O)c1cccc(C(F)(F)F)c1 [Compound 45]
20: Plant response rating, Pigweed [1, 14] | Wheat plant response rating [6, 12] | Corn plant response rating (corn (Zea mays); [12]) | Foxtail, Giant plant response rating [8, 11]
0: Plant response rating, Barnyardgrass [3, 15] | Plant response rating, Barnyardgrass [3, 16] | Plant response rating, Barnyardgrass [3, 17] | Plant response rating, Barnyardgrass ([3]; Flood, 31 g ai/ha) | Plant response rating, Barnyardgrass [4, 13] | Plant response rating, Morningglory [5, 13] | Plant response rating, Wheat [6, 13] | Plant response rating, Wheat [6, 14] | Plant response rating, Corn (corn (Zea mays); [13]) | Plant response rating, Corn (corn (Zea mays); [14]) | Plant response rating, Rice (rice (Oryza sativa); [15]) | Plant response rating, Rice (rice (Oryza sativa); [16]) | Plant response rating, Rice (rice (Oryza sativa); [17]) | Plant response rating, Rice (rice (Oryza sativa); Flood, 31 g ai/ha) | Plant response rating, Velvetleaf [7, 13] | Plant response rating, Sedge, Umbrella [9, 15] | Plant response rating, Sedge, Umbrella [9, 16] | Plant response rating, Sedge, Umbrella [9, 17] | Plant response rating, Sedge, Umbrella ([9]; Flood, 31 g ai/ha) | Plant response rating, Ducksalad [10, 15] | Plant response rating, Ducksalad [10, 16] | Plant response rating, Ducksalad [10, 17] | Plant response rating, Ducksalad ([10]; Flood, 31 g ai/ha)
100: Pigweed plant response rating [1, 11] | Pigweed plant response rating [1, 12]
70: Crabgrass, Large plant response rating [2, 12] | Plant response rating, Crabgrass, Large [2, 13] | Plant response rating, Crabgrass, Large [2, 14] | Velvetleaf plant response rating [7, 12]
40: Morningglory plant response rating [5, 11] | Velvetleaf plant response rating [7, 11]
10: Plant response rating, Pigweed [1, 13] | Barnyardgrass plant response rating [4, 11] | Barnyardgrass plant response rating [4, 12] | Plant response rating, Barnyardgrass [4, 14] | Plant response rating, Morningglory [5, 14] | Wheat plant response rating [6, 11] | Corn plant response rating (corn (Zea mays); [11]) | Plant response rating, Velvetleaf [7, 14]
60: Crabgrass, Large plant response rating [2, 11] | Plant response rating, Foxtail, Giant [8, 14]
80: Morningglory plant response rating [5, 12]
50: Foxtail, Giant plant response rating [8, 12] | Plant response rating, Foxtail, Giant [8, 13]

Cc1nn(-c2cnc(Cl)cn2)nc1C(=O)c1cccc(C(F)(F)F)c1 [Compound 50]
20: Pigweed plant response rating [1, 12] | Plant response rating, Crabgrass, Large [2, 14]
0: Plant response rating, Pigweed [1, 13] | Crabgrass, Large plant response rating [2, 11] | Plant response rating, Barnyardgrass [3, 15] | Plant response rating, Barnyardgrass [3, 17] | Barnyardgrass plant response rating [4, 11] | Plant response rating, Barnyardgrass [4, 13] | Plant response rating, Barnyardgrass [4, 14] | Morningglory plant response rating [5, 11] | Plant response rating, Morningglory [5, 13] | Plant response rating, Morningglory [5, 14] | Wheat plant response rating [6, 11] | Wheat plant response rating [6, 12] | Plant response rating, Wheat [6, 13] | Plant response rating, Wheat [6, 14] | Corn plant response rating (corn (Zea mays); [11]) | Plant response rating, Corn (corn (Zea mays); [13]) | Plant response rating, Corn (corn (Zea mays); [14]) | Plant response rating, Rice (rice (Oryza sativa); [15]) | Plant response rating, Rice (rice (Oryza sativa); [17]) | Velvetleaf plant response rating [7, 11] | Plant response rating, Velvetleaf [7, 13] | Plant response rating, Velvetleaf [7, 14] | Foxtail, Giant plant response rating [8, 11] | Plant response rating, Sedge, Umbrella [9, 15] | Plant response rating, Sedge, Umbrella [9, 17] | Plant response rating, Ducksalad [10, 15] | Plant response rating, Ducksalad [10, 17]
10: Pigweed plant response rating [1, 11] | Plant response rating, Pigweed [1, 14] | Crabgrass, Large plant response rating [2, 12] | Plant response rating, Crabgrass, Large [2, 13] | Barnyardgrass plant response rating [4, 12] | Morningglory plant response rating [5, 12] | Corn plant response rating (corn (Zea mays); [12]) | Velvetleaf plant response rating [7, 12] | Foxtail, Giant plant response rating [8, 12] | Plant response rating, Foxtail, Giant [8, 13]
40: Plant response rating, Foxtail, Giant [8, 14]
